Reference: patent US9421237B2, “Tripeptide boronic acid or boronic ester, preparative method and use thereof” (PEKING UNIVERSITY, priority 2009, dated 2016)
Each block holds one compound with its values, some of them ahead of it.

How the values were obtained:
[1] = molecular target: T1, 20S proteasome extracted from rat liver, chymotryptic-like (CT-L) activity (Rattus norvegicus, UniProt P18421+P28075); experiment: Proteasome inhibition, chymotryptic-like (CT-L) activity, fluorescent peptide Suc-leu-leu-Val-Tyr-AMC; assay type: biochemical; details: rat liver 20S proteasome, 37° C., 1 h
T1 construct: 20S proteasome extracted from rat liver; from tissue; host or cells: rat liver
Method: (§1) The activities of the proteasome were assayed using fluorescent peptides: Suc-leu-leu-Val-Tyr-AMC (Suc represents succinyl, and AMC represents 7-amino-4-methylcoumarin, purchased from SIGMA) for determining chymotryptic-like (CT-L) activity; Z-Ala-Arg-Arg-AMC (Z represents benzyloxycarbonyl, purchased from Calbiochem) for determining trypsin-like (TL) activity; and Z-leu-leu-Glu-βNA (βNA represents β-naphtylamide, purchased from SIGMA) for determining peptidyl-glutamyl-peptide-hydrolyzing (PGPH) enzyme activity.
(§2) Method for the aforesaid activity assays is as follows: 1 μg of 20S proteasome extracted from rat liver was incubated with a 100 μL solution containing various concentrations of compounds, 50 μM fluorescent peptides and 20 mM Tris-HCl at 37° C. for 1 h, respectively. The fluorescence released from AMC and RNA reagents was measured by a spectrofluorimeter Fluostar OPTIMA and BMG Germany at excitation/emission wavelengths of 380/440 nm and 335/410 nm, respectively. 0.1% DMSO was used as a solvent control. Compared with the fluorescence of solvent control, an inhibition rate was calculated.

[2] = molecular target: T2, 20S proteasome extracted from rat liver, trypsin-like (TL) activity (Rattus norvegicus, UniProt P40112+Q9JHW0); experiment: Proteasome inhibition, trypsin-like (TL) activity, fluorescent peptide Z-Ala-Arg-Arg-AMC; assay type: biochemical; details: rat liver 20S proteasome, 37° C., 1 h; read-out: T-L (IC50)
T2 construct: 20S proteasome extracted from rat liver; from tissue; host or cells: rat liver
Method: as §1
as §2, with “calculated. Said assays used anticancer drug bortezomib (leukemia drug), namely PS341 as compound for positive control.” for “calculated.”

[3] = molecular target: T3, 20S proteasome extracted from rat liver, peptidyl-glutamyl-peptide-hydrolyzing (PGPH) enzyme activity (Rattus norvegicus, UniProt P28073+Q9JHW0); experiment: Proteasome inhibition, PGPH activity, fluorescent peptide Z-leu-leu-Glu-βNA; assay type: biochemical; details: rat liver 20S proteasome, 37° C., 1 h
T3 construct: 20S proteasome extracted from rat liver; from tissue; host or cells: rat liver
Method: as §1
as §2, with “calculated. Said assays used anticancer drug bortezomib (leukemia drug), namely PS341 as compound for positive control.” for “calculated.”

[4] = tested on: HL-60 human leukemia cell; experiment: Preliminary anti-tumor screening in vitro, MTT method; assay type: cell-based; parameters: key to Test results: +++: inhibition rates at three doses are greater than 50%; ++: inhibition rates at two doses are greater than 50%; +: inhibition rate at one dose is greater than 50%; details: HL-60, MTT; for Test results: number of doses with inhibition > 50%; for inhibition at 0.05 µM / inhibition at 0.5 µM / inhibition at 5 µM: Homo sapiens, read-out: Inhibition rate %
Method: (§3) The test methods used in this test example is the routine method for anti-tumor activities test in pharmaceutical area, for example, referring to the following reference: (J. Immunol Method, 1983, 65, 55).
(§4) Test models: A: MTT method (HL-60 human leukemia); B: SRB method (BGC-823 human gastric cancer); C: SRB method (Bel-7402 human hepatocarcinoma); D: SRB method (KB human nasopharyngeal carcinoma).
(§5) The aforesaid tests were carried out with the compounds of Examples 1-26 in the present invention, test results are shown in Tables 2-5.

[5] = tested on: BGC-823 human gastric cancer cell; experiment: Preliminary anti-tumor screening in vitro, SRB method; assay type: cell-based; parameters: key to Test results: +++: inhibition rates at three doses are greater than 50%; ++: inhibition rates at two doses are greater than 50%; +: inhibition rate at one dose is greater than 50%; details: BGC-823, SRB; for Test results: number of doses with inhibition > 50%; for inhibition at 0.05 µM / inhibition at 0.5 µM / inhibition at 5 µM: Homo sapiens, read-out: Inhibition rate %
Method: as §3, §4, §5

[6] = tested on: Bel-7402 human hepatocarcinoma cell; experiment: as above; assay type: cell-based; parameters: key to Test results: +++: inhibition rates at three doses are greater than 50%; ++: inhibition rates at two doses are greater than 50%; +: inhibition rate at one dose is greater than 50%; details: Bel-7402, SRB; for Test results: number of doses with inhibition > 50%; for inhibition at 0.05 µM / inhibition at 0.5 µM / inhibition at 5 µM: Homo sapiens, read-out: Inhibition rate %
Method: as §3, §4, §5

[7] = tested on: KB human nasopharyngeal carcinoma cell; experiment: as above; assay type: cell-based; parameters: key to Test results: +++: inhibition rates at three doses are greater than 50%; ++: inhibition rates at two doses are greater than 50%; +: inhibition rate at one dose is greater than 50%; details: for inhibition at 0.05 µM / inhibition at 0.5 µM / inhibition at 5 µM: Homo sapiens, read-out: Inhibition rate %; for Test results: number of doses with inhibition > 50%
Method: as §3, §4, §5

murine H22 cells = experiment: In vivo anti-tumor activity, H22 tumor in ICR mice, oral administration; details: 1 mg/kg orally once per day for 10 days
Method: Animal: ICR mice, half male and half female (18-22 g), provided by Laboratory Animal Science Department of Peking Medical University.
Tumor cell strain: murine H22 cells were provided by cell bank of pharmacological group of the State Key Laboratory of Natural and Biomimetic Drugs.
Method: Murine tumor cells were taken to be treated, and diluted to 5×10^6 cells/ml after treatment. The diluted tumor cells solution was inoculated to the left forelimb oxter of the mice with 0.2 ml/mouse under aseptic condition. 24 h after inoculation, the mice were divided into groups and orally administered once per day to the mice in each group for 10 days. At the 12th day, the tumors were peeled off and weighed, and the average weight of the tumor, standard deviation (SD) and p-value of each group were calculated.

- IC50 [1]: 0.402 ± 0.024 nM
- IC50 [2]: > 20 nM
- IC50 [3]: 8.33 ± 2.49 nM
- melting point: 78 to 80 °C
SMILES: CC(C)C[C@H](NC(=O)[C@H](Cc1ccccc1)NC(=O)[C@H](Cc1ccccc1)NC(=O)c1cnccn1)B1OC2CC3C[C@@H](C3(C)C)[C@]2(C)O1 (stereo partly drawn) [Compound 5a, Pinanediol N-pyrazineformyl-L-phenylalanyl-L-phenylalanyl-L-leucine Borate]

- IC50 [1]: 0.431 ± 0.086 nM
- IC50 [2]: > 20 nM
- IC50 [3]: 3.405 ± 0.021 nM
- melting point: 63 to 65 °C
SMILES: CC(C)C[C@H](NC(=O)[C@H](Cc1ccccc1)NC(=O)[C@H](CC(C)C)NC(=O)c1cnccn1)B1OC2CC3C[C@@H](C3(C)C)[C@]2(C)O1 (stereo partly drawn) [Compound 5e, Pinanediol N-pyrazineformyl-L-leucyl-L-phenylalanyl-L-leucine Borate]

- IC50 [1]: 0.443 ± 0.081 nM
- IC50 [2]: > 20 nM
- melting point: 97 to 98 °C
SMILES: CC(C)C[C@H](NC(=O)[C@H](Cc1ccc2ccccc2c1)NC(=O)[C@H](Cc1ccccc1)NC(=O)c1cnccn1)B1OC2CC3C[C@@H](C3(C)C)[C@]2(C)O1 (stereo partly drawn) [Compound 5g, Pinanediol N-pyrazineformyl-L-phenylalanyl-L-naphthylalanyl-L-leucine Borate]
- Test results [4]: ++
- inhibition at 0.05 µM [4]: -5.06%
- inhibition at 0.5 µM [4]: 87.5%
- inhibition at 5 µM [4]: 88.3%
- Test results [5]: +++
- inhibition at 0.05 µM [5]: 77.6%
- inhibition at 0.5 µM [5]: 95.4%
- inhibition at 5 µM [5]: 95.9%
- Test results [6]: ++
- inhibition at 0.05 µM [6]: 46.7%
- inhibition at 0.5 µM [6]: 77.7%
- inhibition at 5 µM [6]: 94.7%
- inhibition at 0.05 µM [7]: 62.8%
- inhibition at 0.5 µM [7]: 95.5%
- inhibition at 5 µM [7]: 96.5%
- Test results [7]: +++

- IC50 [1]: 0.495 ± 0.092 nM
- IC50 [2]: > 20 nM
- melting point: 136 to 137 °C
SMILES: CC(C)C[C@H](NC(=O)[C@H](Cc1ccc2ccccc2c1)NC(=O)[C@H](Cc1ccc2ccccc2c1)NC(=O)c1cnccn1)B1OC2CC3C[C@@H](C3(C)C)[C@]2(C)O1 (stereo partly drawn) [Compound 5h, Pinanediol N-pyrazineformyl-L-naphthylalanyl-L-naphthylalanyl-L-leucine Borate]
- Test results [4]: ++
- inhibition at 0.05 µM [4]: 11.4%
- inhibition at 0.5 µM [4]: 85.5%
- inhibition at 5 µM [4]: 88.3%
- Test results [5]: +++
- inhibition at 0.05 µM [5]: 55%
- inhibition at 0.5 µM [5]: 89%
- inhibition at 5 µM [5]: 95.4%
- Test results [6]: ++
- inhibition at 0.05 µM [6]: 13.1%
- inhibition at 0.5 µM [6]: 51.7%
- inhibition at 5 µM [6]: 91%
- inhibition at 0.05 µM [7]: 20.8%
- inhibition at 0.5 µM [7]: 91.2%
- inhibition at 5 µM [7]: 94.6%
- Test results [7]: ++

- IC50 [1]: > 20 nM
- IC50 [2]: > 20 nM
- IC50 [3]: > 20 nM
SMILES: CC(C)C[C@H](NC(=O)[C@H](CC1=CNC2C=CC=CC12)NC(=O)[C@H](Cc1ccccc1)NC(=O)c1cnccn1)B1OC2CC3C[C@@H](C3(C)C)[C@]2(C)O1 (stereo partly drawn) [Compound 5j]

- IC50 [1]: 0.287 ± 0.019 nM
- IC50 [2]: > 20 nM
- IC50 [3]: 2.73 ± 1.04 nM
- melting point: 68 to 70 °C
SMILES: CC(C)C[C@H](NC(=O)[C@H](CC(C)C)NC(=O)[C@H](Cc1ccccc1)NC(=O)c1cnccn1)B1OC2CC3C[C@@H](C3(C)C)[C@]2(C)O1 (stereo partly drawn) [Compound 5k, Pinanediol N-pyrazineformyl-L-phenylalanyl-L-leucyl-L-leucine Borate]

- IC50 [1]: 0.345 ± 0.106 nM
- IC50 [2]: > 20 nM
- melting point: 99 to 100 °C
SMILES: CC(C)C[C@H](NC(=O)[C@H](CC(C)C)NC(=O)[C@H](Cc1ccc2ccccc2c1)NC(=O)c1cnccn1)B1OC2CC3C[C@@H](C3(C)C)[C@]2(C)O1 (stereo partly drawn) [Compound 5m, Pinanediol N-pyrazineformyl-L-naphthylalanyl-L-leucyl-L-leucine Borate]
- Test results [4]: ++
- inhibition at 0.05 µM [4]: 11.2%
- inhibition at 0.5 µM [4]: 82.7%
- inhibition at 5 µM [4]: 87.9%
- Test results [5]: ++
- inhibition at 0.05 µM [5]: 46%
- inhibition at 0.5 µM [5]: 84.5%
- inhibition at 5 µM [5]: 97.2%
- Test results [6]: ++
- inhibition at 0.05 µM [6]: 6.49%
- inhibition at 0.5 µM [6]: 52.6%
- inhibition at 5 µM [6]: 95.7%
- inhibition at 0.05 µM [7]: 8.59%
- inhibition at 0.5 µM [7]: 85.6%
- inhibition at 5 µM [7]: 96.2%
- Test results [7]: ++

- IC50 [1]: 0.546 ± 0.077 nM
- IC50 [2]: > 20 nM
- IC50 [3]: 10.9 ± 3.21 nM
- melting point: 112 to 114 °C
SMILES: CC(C)C[C@H](NC(=O)[C@H](Cc1ccccc1)NC(=O)[C@H](Cc1ccccc1)NC(=O)c1cnccn1)B(O)O [Compound 6a, N-pyrazineformyl-L-phenylalanyl-L-phenylalanyl-L-leucine Boronic Acid]

- IC50 [1]: 0.19 ± 0.017 nM
- IC50 [2]: > 20 nM
- IC50 [3]: 5.14 ± 2.17 nM
- melting point: 113 to 116 °C
SMILES: CC(C)C[C@H](NC(=O)[C@H](Cc1ccccc1)NC(=O)[C@H](CC(C)C)NC(=O)c1cnccn1)B(O)O [Compound 6e, N-pyrazineformyl-L-leucyl-L-phenylalanyl-L-leucine Boronic Acid]

- IC50 [1]: > 20 nM
- IC50 [2]: > 20 nM
- IC50 [3]: > 20 nM
SMILES: CC(C)C[C@H](NC(=O)[C@H](Cc1ccccc1)NC(=O)[C@H](Cc1c[nH]c2ccccc12)NC(=O)c1cnccn1)B(O)O [Compound 6i, N-pyrazineformyl-L-tryptophyl-L-phenylalanyl-L-leucine Boronic Acid]

- IC50 [1]: > 20 nM
- IC50 [2]: > 20 nM
- IC50 [3]: > 20 nM
SMILES: CC(C)C[C@H](NC(=O)[C@H](Cc1c[nH]c2ccccc12)NC(=O)[C@H](Cc1ccccc1)NC(=O)c1cnccn1)B(O)O [Compound 6j, N-pyrazineformyl-L-phenylalanyl-L-tryptophyl-L-leucine Boronic Acid]

- IC50 [1]: > 20 nM
- IC50 [2]: > 20 nM
- IC50 [3]: > 20 nM
SMILES: CC(C)C[C@H](NC(=O)[C@H](CC(C)C)NC(=O)[C@H](CC(C)C)NC(=O)c1cnccn1)B(O)O [Compound 6l, N-pyrazineformyl-L-leucyl-L-leucyl-L-leucine Boronic Acid]

- IC50 [2]: > 20 nM
SMILES: CC(C)C[C@H](NC(=O)[C@H](Cc1ccccc1)NC(=O)c1cnccn1)B(O)O [PS341, Bortezomib, reference compound]
- Body weight (g) (X ± SD) (murine H22 cells; ICR mice with H22): 0.65 ± 2.07 g
- Inhibition rate (%) (murine H22 cells; tumors weighed at 12th day): 62.05%
- Tumor weight (g) (X ± SD) (murine H22 cells; tumors weighed at 12th day): 0.47 ± 0.20 g
